The term IC50 denotes the concentration that inhibits the measured activity by half.

Chain of human TRPA1 (O75762 whole entry): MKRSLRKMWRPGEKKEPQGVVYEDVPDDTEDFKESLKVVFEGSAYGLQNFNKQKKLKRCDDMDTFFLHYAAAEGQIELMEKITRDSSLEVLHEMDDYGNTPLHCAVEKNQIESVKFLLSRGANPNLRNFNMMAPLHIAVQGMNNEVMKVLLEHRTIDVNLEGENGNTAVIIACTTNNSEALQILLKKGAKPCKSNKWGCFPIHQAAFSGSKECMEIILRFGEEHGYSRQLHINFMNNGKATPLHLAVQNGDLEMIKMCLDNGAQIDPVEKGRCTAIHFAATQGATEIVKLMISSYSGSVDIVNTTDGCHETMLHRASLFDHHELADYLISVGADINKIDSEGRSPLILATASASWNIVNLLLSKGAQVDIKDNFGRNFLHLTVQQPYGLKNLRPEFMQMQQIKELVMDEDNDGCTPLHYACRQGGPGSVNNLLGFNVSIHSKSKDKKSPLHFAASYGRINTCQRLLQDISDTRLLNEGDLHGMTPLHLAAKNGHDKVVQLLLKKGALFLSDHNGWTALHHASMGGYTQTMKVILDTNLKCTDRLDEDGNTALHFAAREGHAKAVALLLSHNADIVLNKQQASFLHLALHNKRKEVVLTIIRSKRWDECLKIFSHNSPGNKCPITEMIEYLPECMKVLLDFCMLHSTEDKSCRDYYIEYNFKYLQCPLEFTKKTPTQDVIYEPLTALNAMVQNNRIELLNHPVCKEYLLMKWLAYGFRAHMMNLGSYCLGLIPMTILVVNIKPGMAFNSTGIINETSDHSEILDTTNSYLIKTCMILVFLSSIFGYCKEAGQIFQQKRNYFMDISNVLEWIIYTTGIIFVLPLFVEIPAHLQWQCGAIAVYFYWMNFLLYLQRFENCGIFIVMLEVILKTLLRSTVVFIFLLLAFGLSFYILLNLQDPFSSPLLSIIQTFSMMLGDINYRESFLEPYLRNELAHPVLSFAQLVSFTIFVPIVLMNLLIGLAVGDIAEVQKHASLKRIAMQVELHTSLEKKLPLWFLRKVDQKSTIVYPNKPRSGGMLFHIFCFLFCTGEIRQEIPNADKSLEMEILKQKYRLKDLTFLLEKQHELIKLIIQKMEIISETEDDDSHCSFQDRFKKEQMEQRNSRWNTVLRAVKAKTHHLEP

The target of this test is human TRPA1 (Homo sapiens (Human), UniProt O75762). Briefly: In vitro inhibition of human TRPA1, whole cell patch configuration. The format is cell-based. As to conditions: current activation 10 μM AITC, tested concentrations 320 pM to 3.2 μM, read-out: hTRPA1 IC50. The procedure:
All currents were recorded in whole-cell configuration using EPC-9 and EPC-10 amplifiers and Patchmaster software (HEKA) or similar. […] The standard bath solution contained 150 mM NaCl, 10 mM HEPES, 10 mM glucose, 4.5 mM KCl, 1 mM EGTA, 3 mM MgCl2, with pH adjusted to 7.4 with NaOH. In some instances, 2 mM CaCl2 was added in place of EGTA and the concentration of MgCl2 was reduced to 1 mM.
Data were collected either by continuous recordings at −60 mV or by applying voltage ramps from a holding potential of −40 mV every 4 s. Continuous recordings were collected at 400 Hz and digitally filtered off-line at 10 Hz for presentation. Voltage ramps were applied from −100 mV or −80 mV to +100 mV or +80 mV over the course of 400 ms, and data were collected at 10 kHz and filtered at 2.9 kHz. Inward and outward currents were analyzed from the ramps at −80 and 80 mV, respectively. Liquid junction potential correction was not used.
Solutions were switched using a gravity-fed continuous focal perfusion system. To achieve rapid temperature changes, two temperature control, and perfusion systems were employed simultaneously. […] Temperatures were confirmed using a thermistor (Warner Instruments, TA-29), with temperatures at the recorded cell estimated to be within +/−2° C. of those reported.
The antagonist effects of compounds of Formula (I) against human TRPA1 (“hTRPA1”) in a whole cell patch configuration were evaluated using the in vitro assay described above.
On to `CCC(=O)Cn1c(=O)c2c(ncn2[C@@H](C)C(=O)Nc2cncc(-c3cnc(N4CC5CC5C4)nc3)n2)n(C)c1=O` (stereo partly drawn) [Compound 13, (2S)—N-(6-(2-(3-azabicyclo[3.1.0]hexan-3-yl)pyrimidin-5-yl)pyrazin-2-yl)-2-(3-methyl-2,6-dioxo-1-(2-oxobutyl)-2,3-dihydro-1H-purin-7(6H)-yl)propanamide], for which the IC50 stood at 8 nM.

`CC(=O)Cn1c(=O)c2c(ncn2[C@@H](C)C(=O)Nc2csc(-c3cnc(N4CCC[C@H]4C(F)(F)F)nc3)n2)n(C)c1=O` [Compound 16, (S)-2-(3-methyl-2,6-dioxo-1-(2-oxopropyl)-2,3-dihydro-1H-purin-7(6H)-yl)-N-(2-(2-((S)-2-(trifluoromethyl)pyrrolidin-1-yl)pyrimidin-5-yl)thiazol-4-yl)propanamide]: the IC50 worked out at 2 nM. Turning to `CCC(=O)Cn1c(=O)c2c(ncn2C(C)C(=O)Nc2ccnc(-c3cnc(N4CC5CC5C4)nc3)n2)n(C)c1=O` (stereo not drawn) [Compound 17, N-(2′-(3-azabicyclo[3.1.0]hexan-3-yl)-2,5′-bipyrimidin-4-yl)-2-(3-methyl-2,6-dioxo-1-(2-oxobutyl)-2,3-dihydro-1H-purin-7(6H)-yl)propanamide], the IC50 amounted to 8 nM. The same measure for `CC(=O)Cn1c(=O)c2c(ncn2[C@@H](C)C(=O)Nc2csc(-c3ccc(Cl)c(Cl)c3)n2)n(C)c1=O` [Compound 20, (S)—N-(2-(3,4-dichlorophenyl)thiazol-4-yl)-2-(3-methyl-2,6-dioxo-1-(2-oxopropyl)-2,3-dihydro-1H-purin-7(6H)-yl)propanamide]: 2 nM; for `C[C@@H](C(=O)Nc1cncc(-c2cnc(C(F)(F)F)nc2)n1)n1cnc2c1c(=O)n(CC#N)c(=O)n2C` [Compound 22, (S)-2-(1-(cyanomethyl)-3-methyl-2,6-dioxo-2,3-dihydro-1H-purin-7(6H)-yl)-N-(6-(2-(trifluoromethyl)pyrimidin-5-yl)pyrazin-2-yl)propanamide]: 203 nM. Regarding `Cc1cc(Cn2c(=O)c3c(ncn3[C@@H](C)C(=O)Nc3cccc(-c4ccc(C(F)(F)F)cc4)n3)n(C)c2=O)no1` [Compound 23], the IC50 came out at 5 nM. In the case of `CC(C(=O)Nc1ccnc(-c2cnc(N3CC4CC4C3)nc2)n1)n1cnc2c1c(=O)n(CC#N)c(=O)n2C` (stereo not drawn) [Compound 24, N-(2′-(3-azabicyclo[3.1.0]hexan-3-yl)-2,5′-bipyrimidin-4-yl)-2-(1-(cyanomethyl)-3-methyl-2,6-dioxo-2,3-dihydro-1H-purin-7(6H)-yl)propanamide], the IC50 was 10 nM. In the case of `CCC(=O)Cn1c(=O)c2c(ncn2[C@@H](C)C(=O)Nc2cccc(-c3cnc(N4CC5C(C4)C5(F)F)nc3)n2)n(C)c1=O` (stereo partly drawn) [Compound 26, (2S)—N-(6-(2-(6,6-difluoro-3-azabicyclo[3.1.0]hexan-3-yl)pyrimidin-5-yl)pyridin-2-yl)-2-(3-methyl-2,6-dioxo-1-(2-oxobutyl)-2,3-dihydro-1H-purin-7(6H)-yl)propanamide], the IC50 was found to be 1 nM. The same measure for `CCN(CC)c1ncc(-c2cccc(NC(=O)[C@H](C)n3cnc4c3c(=O)n(Cc3cc(C)on3)c(=O)n4C)n2)cn1` [Compound 27, (S)—N-(6-(2-(diethylamino)pyrimidin-5-yl)pyridin-2-yl)-2-(3-methyl-1-((5-methylisoxazol-3-yl)methyl)-2,6-dioxo-2,3-dihydro-1H-purin-7(6H)-yl)propanamide]: 2 nM.

Consider `C[C@@H](C(=O)Nc1csc(-c2cnc(N3CCC[C@H]3C(F)(F)F)nc2)n1)n1cnc2c1c(=O)n(CC#N)c(=O)n2C` [Compound 28, (S)-2-(1-(cyanomethyl)-3-methyl-2,6-dioxo-2,3-dihydro-1H-purin-7(6H)-yl)-N-(2-(2-((S)-2-(trifluoromethyl)pyrrolidin-1-yl)pyrimidin-5-yl)thiazol-4-yl)propanamide], for which the IC50 stood at 1 nM. As for `C[C@@H](C(=O)Nc1csc(-c2ccc(Cl)c(Cl)c2)n1)n1cnc2c1c(=O)n(CC#N)c(=O)n2C` [Compound 29, (S)-2-(1-(cyanomethyl)-3-methyl-2,6-dioxo-2,3-dihydro-1H-purin-7(6H)-yl)-N-(2-(3,4-dichlorophenyl)thiazol-4-yl)propanamide], the figure is 1 nM. As for `C[C@@H](C(=O)Nc1cccc(-c2cnc(N3CC4C(C3)C4(F)F)nc2)n1)n1cnc2c1c(=O)n(CC#N)c(=O)n2C` (stereo partly drawn) [Compound 30, (2S)-2-(1-(cyanomethyl)-3-methyl-2,6-dioxo-2,3-dihydro-1H-purin-7(6H)-yl)-N-(6-(2-(6,6-difluoro-3-azabicyclo[3.1.0]hexan-3-yl)pyrimidin-5-yl)pyridin-2-yl)propanamide], the figure is 3 nM; as for `CC(=O)Cn1c(=O)c2c(ncn2[C@@H](C)C(=O)Nc2csc(-c3cnc(C(F)(F)F)nc3)n2)n(C)c1=O` [Compound 31, (S)-2-(3-methyl-2,6-dioxo-1-(2-oxopropyl)-2,3-dihydro-1H-purin-7(6H)-yl)-N-(2-(2-(trifluoromethyl)pyrimidin-5-yl)thiazol-4-yl)propanamide], 16 nM. The same measure for `Cc1cc(Cn2c(=O)c3c(ncn3[C@@H](C)C(=O)Nc3csc(-c4cnc(C(F)(F)F)nc4)n3)n(C)c2=O)no1` [Compound 32, (S)-2-(3-methyl-1-((5-methylisoxazol-3-yl)methyl)-2,6-dioxo-2,3-dihydro-1H-purin-7(6H)-yl)-N-(2-(2-(trifluoromethyl)pyrimidin-5-yl)thiazol-4-yl)propanamide]: 3 nM; for `CCC(=O)Cn1c(=O)c2c(ncn2[C@@H](C)C(=O)Nc2csc(-c3ccc(N4CC5CC5C4)nc3)n2)n(C)c1=O` (stereo partly drawn) [Compound 33]: 1 nM. With `C[C@@H](C(=O)Nc1cccc(-c2ccc(N3CC4CC4C3)nc2)n1)n1cnc2c1c(=O)n(CC#N)c(=O)n2C` (stereo partly drawn) [Compound 35, (2S)—N-(6′-(3-azabicyclo[3.1.0]hexan-3-yl)-2,3′-bipyridin-6-yl)-2-(1-(cyanomethyl)-3-methyl-2,6-dioxo-2,3-dihydro-1H-purin-7(6H)-yl)], the IC50 amounted to 6 nM. On to `CCN(CC)c1ncc(-c2nc(NC(=O)[C@H](C)n3cnc4c3c(=O)n(Cc3cc(C)on3)c(=O)n4C)cs2)cn1` [Compound 36, (S)—N-(2-(2-(diethylamino)pyrimidin-5-yl)thiazol-4-yl)-2-(3-methyl-1-((5-methylisoxazol-3-yl)methyl)-2,6-dioxo-2,3-dihydro-1H-purin-7(6H)-yl)propanamide], for which the IC50 came to 2 nM.

In the case of `CCC(=O)Cn1c(=O)c2c(ncn2[C@@H](C)C(=O)Nc2cccc(-c3ccc(N4CC5CC5C4)nc3)n2)n(C)c1=O` (stereo partly drawn) [Compound 37, (2S)—N-(6′-(3-azabicyclo[3.1.0]hexan-3-yl)-2,3′-bipyridin-6-yl)-2-(3-methyl-2,6-dioxo-1-(2-oxobutyl)-2,3-dihydro-1H-purin-7(6H)-yl)propanamide], the IC50 stood at 3 nM.

For `CCC(=O)Cn1c(=O)c2c(ncn2[C@@H](C)C(=O)Nc2csc(-c3cnc(N(CC)CC)nc3)n2)n(C)c1=O` [Compound 38, (S)—N-(2-(2-(diethylamino)pyrimidin-5-yl)thiazol-4-yl)-2-(3-methyl-2,6-dioxo-1-(2-oxobutyl)-2,3-dihydro-1H-purin-7(6H)-yl)propanamide], the IC50 turned out to be 3 nM. As for `C[C@@H](C(=O)Nc1cccc(-c2cnc(N3CCC[C@@H]3C(F)(F)F)nc2)n1)n1cnc2c1c(=O)n(CC#N)c(=O)n2C` [Compound 39, (S)-2-(1-(cyanomethyl)-3-methyl-2,6-dioxo-2,3-dihydro-1H-purin-7(6H)-yl)-N-(6-(2-((R)-2-(trifluoromethyl)pyrrolidin-1-yl)pyrimidin-5-yl)pyridin-2-yl)propanamide], the figure is 3 nM; as for `C[C@@H](C(=O)Nc1cncc(-c2cnc(N3CCC[C@@H]3C(F)(F)F)nc2)n1)n1cnc2c1c(=O)n(CC#N)c(=O)n2C` [Compound 40, (S)-2-(1-(cyanomethyl)-3-methyl-2,6-dioxo-2,3-dihydro-1H-purin-7(6H)-yl)-N-(6-(2-((R)-2-(trifluoromethyl)pyrrolidin-1-yl)pyrimidin-5-yl)pyrazin-2-yl)propanamide], 8 nM; as for `CC(=O)Cn1c(=O)c2c(ncn2[C@@H](C)C(=O)Nc2cncc(-c3ccc(N4CC5CC5C4)nc3)n2)n(C)c1=O` (stereo partly drawn) [Compound 41, (2S)—N-(6-(6-(3-azabicyclo[3.1.0]hexan-3-yl)pyridin-3-yl)pyrazin-2-yl)-2-(3-methyl-2,6-dioxo-1-(2-oxopropyl)-2,3-dihydro-1H-purin-7(6H)-yl)propanamide], 12 nM.

For the molecule `CCC(=O)Cn1c(=O)c2c(ncn2[C@@H](C)C(=O)Nc2cncc(-c3ccc(N4CC5CC5C4)nc3)n2)n(C)c1=O` (stereo partly drawn) [Compound 42, (2S)—N-(6-(6-(3-azabicyclo[3.1.0]hexan-3-yl)pyridin-3-yl)pyrazin-2-yl)-2-(3-methyl-2,6-dioxo-1-(2-oxobutyl)-2,3-dihydro-1H-purin-7(6H)-yl)propanamide], the concentration for half-maximal inhibition (IC50) was determined as 4 nM. With `C[C@@H](C(=O)Nc1cncc(-c2ccc(N3CC4CC4C3)nc2)n1)n1cnc2c1c(=O)n(CC#N)c(=O)n2C` (stereo partly drawn) [Compound 43, (2S)—N-(6-(6-(3-azabicyclo[3.1.0]hexan-3-yl)pyridin-3-yl)pyrazin-2-yl)-2-(1-(cyanomethyl)-3-methyl-2,6-dioxo-2,3-dihydro-1H-purin-7(6H)-yl)propanamide], the IC50 turned out to be 8 nM.

The values are drawn from patent publication US10221177B2 (HYDRA BIOSCIENCES, INC., priority 2014, dated 2019).
